Test results reported in ChEMBL document CHEMBL1127220, “3-hydroxy-3-cyclobutene-1,2-dione: Application of novel carboxylic acid bioisostere to an in-vivo active non-tetrazole angiotensin-II antagonist” (Bioorg Med Chem Lett, 1993).

System: Rattus norvegicus
Assay: Maximum % change of AII-supported portion of mean arterial pressure at 3 mg/kg, i.d.
Type: functional, Artery
Conditions: route intraduodenal

`O=c1c(O)c(-c2ccccc2-c2ccc(CNc3nc(C(F)(F)F)nc4c3CCCC4)cc2)c1=O` was tested, and the Change was -52%.
With `O=S(=O)(Nc1ccccc1-c1ccc(CNc2nc(C(F)(F)F)nc3c2CCCC3)cc1)C(F)(F)F` the Change was -31%.
With `O=C(O)c1ccccc1-c1ccc(CNc2nc(C(F)(F)F)nc3c2CCCC3)cc1` the Change was -62%.
`FC(F)(F)c1nc2c(c(NCc3ccc(-c4ccccc4-c4nn[nH]n4)cc3)n1)CCCC2` gave a Change of -75%.
`CCCCc1nc(Cl)c(CO)n1Cc1ccc(-c2ccccc2-c2nnn[nH]2)cc1` [LOSARTAN] was tested, and the Change was -72%.
